Columns and labels:
HCC1937 = assay: normalised viability (% of control), CellTiter-Blue; higher = more viable cells (about 100 = DMSO control); settings: incubation time: 72 h
Outline: (§1)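 Vehicle (100) and a positive kill control (0) anchored the normalisation of each plate, and Z'-factor was used for quality control. Breast cancer cell lines in 20 µl suspension were incubated 72 h over compound in 5 µl medium in 384-well plates, followed by CellTiter-Blue at 560/590 nm. The value is normalised viability at a single listed concentration of the series.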

HCC1143 = assay: as above; settings: incubation time: 72 h
Outline: as §1

HDQ-P1 [1] = assay: as above; settings: incubation time: 72 h
Outline: as §1

SK-BR-3 = assay: as above; settings: incubation time: 72 h
Outline: as §1

MDA-MB-468 [2] = assay: as above; settings: incubation time: 72 h
Outline: as §1

BT-474 [3] = assay: as above; settings: incubation time: 72 h
Outline: as §1

DU-4475 [4] = assay: as above; settings: incubation time: 72 h
Outline: as §1

BT-549 = assay: as above; settings: incubation time: 72 h
Outline: as §1

CAL-51 [5] = assay: as above; settings: incubation time: 72 h
Outline: as §1

MFM-223 = assay: as above; settings: incubation time: 72 h
Outline: as §1

Hs578T = assay: as above; settings: incubation time: 72 h
Outline: as §1

CAL-120 = assay: as above; settings: incubation time: 72 h
Outline: as §1

MDA-MB-231 = assay: as above; settings: incubation time: 72 h
Outline: as §1

MDA-MB-453 [6] = assay: as above; settings: incubation time: 72 h
Outline: as §1

CAL-85-1 [7] = assay: as above; settings: incubation time: 72 h
Outline: as §1

CAL-148 [8] = assay: as above; settings: incubation time: 72 h
Outline: as §1

HDQ-P1 [9] = settings: 72 h
Outline: (§2)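 Breast cancer cell lines (20 µl suspension) were seeded into 384-well plates holding compound at 5 concentrations in 10-fold steps over a compound-specific 10,000-fold range, then incubated 72 h. Cell death was read first by CellTox Green fluorescence (485/520 nm), then viability by CellTiter-Glo luminescence after 10 min at room temperature. Each plate was normalised to 0.1 % DMSO and a positive kill control. EC50 was fitted from the dose-response curves and censored at the top concentration.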

MDA-MB-468 [10] = settings: 72 h
Outline: as §2

BT-474 [11] = settings: 72 h
Outline: as §2

HDQ-P1 [12] = assay: normalised viability (% of control), CellTiter-Blue; higher = more viable cells (about 100 = DMSO control); settings: incubation time: 72 h; remark: listed apart in the source
Procedure: (§3)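 DSRT, CellTiter-Blue viability, 72 h incubation. Signal is normalised to DMSO and benzethonium chloride controls. Value is the normalised response at dose 9.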

DU-4475 [13] = assay: as above; settings: incubation time: 72 h; remark: listed apart in the source
Procedure: as §3

CAL-51 [14] = assay: as above; settings: incubation time: 72 h; remark: listed apart in the source
Procedure: as §3

MDA-MB-453 [15] = assay: as above; settings: incubation time: 72 h; remark: listed apart in the source
Procedure: as §3

CAL-85-1 [16] = assay: as above; settings: incubation time: 72 h; remark: listed apart in the source
Procedure: as §3

CAL-148 [17] = assay: as above; settings: incubation time: 72 h; remark: listed apart in the source
Procedure: as §3

How did the normalised viability (HCC1937; 10 nM) turn out when `Cn1cnc2c(F)c(Nc3ccc(Br)cc3Cl)c(C(=O)NOCCO)cc21` [Selumetinib] was run?
Its normalised viability is 65.3%.

And the normalised viability (HCC1937; 1000 nM)?
The normalised viability was 83.8%.

And the normalised viability (HCC1937; 10000 nM)?
Its normalised viability is 68.6%.

And the normalised viability (HCC1143; 10 nM)?
The normalised viability was 79.7%.

What about the normalised viability (HCC1143; 1000 nM) of the same compound?
Its normalised viability is 58.2%.

What about the normalised viability (HCC1143; 10000 nM) of the same compound?
The normalised viability was 49.7%.

What about the normalised viability (HDQ-P1 [1]; 3 nM) of the same compound?
Its normalised viability is 92.4%.

What about the normalised viability (HDQ-P1 [1]; 30 nM) of the same compound?
Its normalised viability is 107%.

What about the normalised viability (HDQ-P1 [1]; 100 nM) of the same compound?
The normalised viability was 92.6%.

What about the normalised viability (SK-BR-3; 10 nM) of the same compound?
The normalised viability was 98.7%.

What about the normalised viability (SK-BR-3; 1000 nM) of the same compound?
Its normalised viability is 114%.

What about the normalised viability (SK-BR-3; 10000 nM) of the same compound?
Its normalised viability is 93.6%.

And the normalised viability (MDA-MB-468 [2]; 10 nM)?
The normalised viability was 106%.

And the normalised viability (MDA-MB-468 [2]; 1000 nM)?
Its normalised viability is 95%.

And the normalised viability (MDA-MB-468 [2]; 10000 nM)?
Its normalised viability is 69.5%.

And the normalised viability (BT-474 [3]; 10 nM)?
Its normalised viability is 104%.

And the normalised viability (BT-474 [3]; 1000 nM)?
Its normalised viability is 105%.

And the normalised viability (BT-474 [3]; 10000 nM)?
The normalised viability was 104%.

And the normalised viability (DU-4475 [4]; 3 nM)?
Its normalised viability is 95.1%.

What about the normalised viability (DU-4475 [4]; 30 nM) of the same compound?
Its normalised viability is 72.5%.

What about the normalised viability (DU-4475 [4]; 100 nM) of the same compound?
Its normalised viability is 43.7%.

What about the normalised viability (BT-549; 10 nM) of the same compound?
The normalised viability was 109%.

And the normalised viability (BT-549; 1000 nM)?
Its normalised viability is 101%.

And the normalised viability (BT-549; 10000 nM)?
Its normalised viability is 95.3%.

What about the normalised viability (CAL-51 [5]; 3 nM) of the same compound?
Its normalised viability is 116%.

What about the normalised viability (CAL-51 [5]; 30 nM) of the same compound?
The normalised viability was 102%.

What about the normalised viability (CAL-51 [5]; 100 nM) of the same compound?
The normalised viability was 96.3%.

What about the normalised viability (MFM-223; 10 nM) of the same compound?
The normalised viability was 86.2%.

And the normalised viability (MFM-223; 1000 nM)?
The normalised viability was 89.7%.

What about the normalised viability (MFM-223; 10000 nM) of the same compound?
The normalised viability was 73.1%.

And the normalised viability (Hs578T; 10 nM)?
Its normalised viability is 90.8%.

What about the normalised viability (Hs578T; 1000 nM) of the same compound?
Its normalised viability is 89.8%.

What about the normalised viability (Hs578T; 10000 nM) of the same compound?
The normalised viability was 76.2%.

What about the normalised viability (CAL-120; 10 nM) of the same compound?
Its normalised viability is 78.8%.

And the normalised viability (CAL-120; 1000 nM)?
The normalised viability was 78.6%.

And the normalised viability (CAL-120; 10000 nM)?
The normalised viability was 63.3%.

What about the normalised viability (MDA-MB-231; 10 nM) of the same compound?
The normalised viability was 90.3%.

What about the normalised viability (MDA-MB-231; 1000 nM) of the same compound?
Its normalised viability is 49.5%.

What about the normalised viability (MDA-MB-231; 10000 nM) of the same compound?
The normalised viability was 30%.

What about the normalised viability (MDA-MB-453 [6]; 3 nM) of the same compound?
Its normalised viability is 122%.

What about the normalised viability (MDA-MB-453 [6]; 30 nM) of the same compound?
Its normalised viability is 105%.

And the normalised viability (MDA-MB-453 [6]; 100 nM)?
Its normalised viability is 110%.

And the normalised viability (CAL-85-1 [7]; 3 nM)?
The normalised viability was 88.1%.

And the normalised viability (CAL-85-1 [7]; 30 nM)?
The normalised viability was 93.6%.

What about the normalised viability (CAL-85-1 [7]; 100 nM) of the same compound?
The normalised viability was 100%.

What about the normalised viability (CAL-148 [8]; 3 nM) of the same compound?
The normalised viability was 91%.

And the normalised viability (CAL-148 [8]; 30 nM)?
The normalised viability was 87.9%.

What about the normalised viability (CAL-148 [8]; 100 nM) of the same compound?
The normalised viability was 88.9%.

What about the “EC50, CellTiter-Glo” value (HDQ-P1 [9]) of the same compound?
Its value is 44.8 nM.

And the “EC50, CellTiter-Glo” value (MDA-MB-468 [10])?
Its value is 5030 nM.

What about the “EC50, CellTiter-Glo” value (BT-474 [11]) of the same compound?
Its value is 361 nM.

With `CC1(C)CNc2cc(NC(=O)c3cccnc3NCc3ccncc3)ccc21` [Motesanib] (10000 nM) as the compound, how does the normalised viability (HDQ-P1 [12]) read?
Its normalised viability is 92.2%.

What about the normalised viability (DU-4475 [13]) of the same compound?
The normalised viability was 88.6%.

And the normalised viability (CAL-51 [14])?
The normalised viability was 97.2%.

And the normalised viability (MDA-MB-453 [15])?
The normalised viability was 69.4%.

And the normalised viability (CAL-85-1 [16])?
Its normalised viability is 78.2%.

And the normalised viability (CAL-148 [17])?
The normalised viability was 91.8%.

For `Nc1nc2[nH]cnc2c(=S)[nH]1` [Thioguanine] (10000 nM), which normalised viability (HDQ-P1 [12]) is on record?
Its normalised viability is 58.5%.

What about the normalised viability (DU-4475 [13]) of the same compound?
The normalised viability was 73.8%.

And the normalised viability (CAL-51 [14])?
Its normalised viability is 54.2%.

What about the normalised viability (MDA-MB-453 [15]) of the same compound?
Its normalised viability is 73.1%.

And the normalised viability (CAL-85-1 [16])?
Its normalised viability is 61.8%.

What about the normalised viability (CAL-148 [17]) of the same compound?
The normalised viability was 42%.

For `O=C1CN2Cc3c(ccc(Cl)c3Cl)N=C2N1` [Anagrelide] (10000 nM), which normalised viability (HDQ-P1 [12]) is on record?
The normalised viability was 118%.

What about the normalised viability (DU-4475 [13]) of the same compound?
Its normalised viability is 108%.

And the normalised viability (CAL-51 [14])?
Its normalised viability is 83.8%.

What about the normalised viability (MDA-MB-453 [15]) of the same compound?
The normalised viability was 90.9%.

What about the normalised viability (CAL-85-1 [16]) of the same compound?
The normalised viability was 89.8%.

What about the normalised viability (CAL-148 [17]) of the same compound?
The normalised viability was 115%.

For `CC(C)(C)c1cnc(CSc2cnc(NC(=O)C3CCNCC3)s2)o1` [SNS-032] (10000 nM), which normalised viability (HDQ-P1 [12]) is on record?
Its normalised viability is 12.7%.

What about the normalised viability (DU-4475 [13]) of the same compound?
The normalised viability was -0.36%.

And the normalised viability (CAL-51 [14])?
Its normalised viability is 4.67%.

And the normalised viability (MDA-MB-453 [15])?
The normalised viability was 18.6%.

And the normalised viability (CAL-85-1 [16])?
Its normalised viability is 2.06%.

What about the normalised viability (CAL-148 [17]) of the same compound?
The normalised viability was 21.8%.

`C[C@]1(O)C[C@@H](c2nc(-c3ccc4ccc(-c5ccccc5)nc4c3)c3c(N)nccn32)C1` [Linsitinib] was tested. Which “EC50, CellTiter-Glo” value (HDQ-P1 [9]) did it give?
The value was 1010 nM.

And the “EC50, CellTiter-Glo” value (MDA-MB-468 [10])?
The value was 4140 nM.

What about the “EC50, CellTiter-Glo” value (BT-474 [11]) of the same compound?
The value was 1090 nM.

Reference: the supplement of paper PMC4862054
